Laboratory results reported in patent publication US20090048295A1, “SUBSTITUTED 5,6,7,8-TETRAHYDROQUINOLINE DERIVATIVES, COMPOSITIONS, AND METHODS OF USE THEREOF” (priority 2007, published 2009).

Columns and labels:
C5a receptor [1] = target: T1, C5a receptor (Homo sapiens, UniProt P21730); assay: Calcium Mobilization Assay (C5a-induced Ca2+ mobilization, FLIPR, differentiated U937 cells); assay type: cell-based; parameters: endogenous in cells; host or cells: U937 cells differentiated with dibutyryl cAMP; conditions: […] recombinant human C5a, 20 min pre-incubation, multiple values = duplicate experiments, read-out: C5a Induced Ca Mobil. Average IC50
T1 sequence (P21730 1-350): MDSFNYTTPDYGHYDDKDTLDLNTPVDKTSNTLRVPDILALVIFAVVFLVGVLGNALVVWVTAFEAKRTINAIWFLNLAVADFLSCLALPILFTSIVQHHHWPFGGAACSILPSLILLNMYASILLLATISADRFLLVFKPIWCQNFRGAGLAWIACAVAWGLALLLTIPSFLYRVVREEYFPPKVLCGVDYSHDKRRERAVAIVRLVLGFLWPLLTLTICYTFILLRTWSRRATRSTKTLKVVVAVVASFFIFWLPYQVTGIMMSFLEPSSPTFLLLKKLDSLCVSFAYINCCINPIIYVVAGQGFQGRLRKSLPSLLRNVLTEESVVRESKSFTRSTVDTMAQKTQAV
Method: U937 cells (human monocytic cell line) were cultured in RPMI-1640 medium supplemented with 10% fetal bovine serum, 10 mM HEPES, 0.11 g/L pyruvate, 0.29 g/L L-glutamine, 100 IU/mL penicillin G and […] streptomycin. Dibutyryl cAMP (1 mM) was added to induce differentiation 2 or 3 days prior to loading the cells with 4.4 μM Fluo-3AM (Molecular Probes) for 30 min at 37° C. in RPMI medium containing 20 mM HEPES, 0.1% bovine serum albumin (BSA) and 5 mM probenecid. After washing, cells were dissolved at 2×10^6 cells/ml in HBSS buffer (Invitrogen 14190-094) supplemented with 10 mM HEPES, 2.5 mM probenecid and 0.1% BSA (pH=7.4), and sedimented by 1 min centrifugation (1500 rpm) in black 96-well plates (Costar) (200,000 cells/well). A 100× concentration range of test compounds was prepared in DMSO and further diluted in HBSS buffer. U937 cells were pre-incubated with compound for 20 minutes at room temperature (1% DMSO), before recombinant human C5a (Sigma) was added to the cells (1.5 nM). Changes in intracellular free Ca^2+ concentration were measured using the Fluorescent Imaging Plate Reader (FLIPR, Molecular Devices). Fluorescence was recorded every second from 10 seconds before the addition of C5a until 2 min after the addition. The maximal fluorescence obtained during this time frame was used for further calculations.

C5a receptor [2] = target: T1, C5a receptor; assay: [125I]-C5a Radioligand Binding Assay (competition binding, differentiated U937 cells); conditions: [125I]-C5a 0.05 nM, U937 cells, multiple values = duplicate experiments; for inhibition at 1 µM: read-out: [125I]-C5a Binding % Inhibition 1 μM, test compound 1 μM; for inhibition at 10 µM: read-out: [125I]-C5a Binding % Inhibition 10 μM, test compound 10 μM;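 for all read-outs here: cells preincubated with compound 30 min at room temperature, then 60 min at 4 °C with radioligand, bound counts read by scintillation, nonspecific binding defined with 100 nM C5a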

SMILES	IC50 (C5a receptor [1])	inhibition at 1 µM (C5a receptor [2])	inhibition at 10 µM (C5a receptor [2])	[125I]-C5a Binding % Inhibition 1 μM (C5a receptor [2]; test compound 1 μM)	[125I]-C5a Binding % Inhibition 10 μM (C5a receptor [2]; test compound 10 μM)
CCOc1cc(-c2c(CC)cccc2CC)nc2c1C(N(CC)c1cccc3ccccc13)CCC2 (racemic) [Compound 8, (±)-[2-(2,6-Diethyl-Phenyl)-4-ethoxy-5,6,7,8-tetrahydro-quinolin-5-yl]-ethyl-naphthlen-1-yl-amine]	0.067 µM	94%	96%		
CCc1cccc(CC)c1-c1cc(OC)c2c(n1)CCCC2Nc1ccccc1CCO (stereo not drawn) [Compound 5]	0.03 µM	92%	97%		
CCc1cccc(CC)c1-c1cc(SC)c2c(n1)CCCC2N(CC)c1cccc2ccccc12 (stereo not drawn) [Compound 10]	0.082 µM	92%	94%		
CCc1cccc(CC)c1-c1cc(OC)c2c(n1)CCCC2Nc1ccccc1CO (stereo not drawn) [Compound 15]	0.177 µM	79%	90%		
CCN(c1cccc2ccccc12)C1CCCc2nc(-c3c(C)cccc3C)cc(OC)c21 (stereo not drawn) [Compound 16]	0.133 µM	88%	90%		
CCN(c1cccc2ccccc12)C1CCCc2nc(-c3c(C)cc(OC)cc3C)cc(OC)c21 (stereo not drawn) [Compound 21]	0.169 µM	91%	93%		
CCc1cccc(CC)c1-c1cc(OC)c2c(n1)CCCC2N(C)c1cccc2cc(OC)ccc12 (stereo not drawn) [Compound 22]	0.176 µM			87%	86%
CCc1cccc(CC)c1-c1cc(OC)c2c(n1)CCCC2N(CC)c1cccc2c1CCCC2 (stereo not drawn) [Compound 24]	0.216 µM	88%	91%		
CCc1cccc(CC)c1-c1cc(OCc2ccccc2)c2c(n1)CCCC2N(CC)c1cccc2ccccc12 (stereo not drawn) [Compound 27]	0.273 µM	90%	94%		
CCc1cccc(CC)c1-c1cc(OC)c2c(n1)CCCC2Nc1cc(C(F)(F)F)ccc1C (stereo not drawn) [Compound 28]	0.287 µM	88%	92%		
CCc1cccc(CC)c1-c1cc(OC)c2c(n1)CCCC2Oc1cc(OC)ccc1C (stereo not drawn) [Compound 29]	0.338 µM	88%	89%		
CCN(c1cccc2ccccc12)C1CCCc2nc(-c3ccccc3C)cc(OC)c21 (stereo not drawn) [Compound 30]	0.354 µM	68%	82%		
CCc1cccc(CC)c1-c1cc(OC)c2c(n1)CCCC2Nc1cc(OC)ccc1Cl (stereo not drawn) [Compound 32]	0.38 µM	88%	91%		
CCc1cccc(CC)c1-c1cc(OC)c2c(n1)CCCC2Nc1cc(OC)ccc1OC (stereo not drawn) [Compound 34]	0.417 µM	83%	89%		
CCc1cccc(CC)c1-c1cc(OC)c2c(n1)CCCC2N(C)c1ccc(OC)c2ccccc12 (stereo not drawn) [Compound 36]	0.531 µM	86%	87%		
COc1ccc(C)c(NC2CCCc3nc(-c4c(C)cccc4C)cc(OC)c32)c1 (stereo not drawn) [Compound 37]	0.543 µM	74%	86%		
CCc1cccc(CC)c1-c1cc(OC)c2c(n1)CCCC2N(C)c1cc(OC)ccc1C (stereo not drawn) [Compound 38]	0.56 µM	84%	87%		
CCc1cccc(CC)c1-c1cc(OC)c2c(n1)CCCC2N(C)c1cc(C)ccc1C (stereo not drawn) [Compound 40]	0.687 µM	88%	88%		

SMILES	IC50 (C5a receptor [1])	inhibition at 1 µM (C5a receptor [2])	inhibition at 10 µM (C5a receptor [2])	[125I]-C5a Binding % Inhibition 1 μM (C5a receptor [2]; test compound 1 μM)	[125I]-C5a Binding % Inhibition 10 μM (C5a receptor [2]; test compound 10 μM)
CCc1ccccc1NC1CCCc2nc(-c3c(CC)cccc3CC)cc(OC)c21 (stereo not drawn) [Compound 41]	0.732 µM	85%	86%		
CCc1cccc(CC)c1-c1cc(OC)c2c(n1)CCCC2N(C)c1ccccc1C (stereo not drawn) [Compound 42]	0.792 µM	83%	86%		
CCc1cccc(CC)c1-c1cc(OC)c2c(n1)CCC[C@H]2N(C)[C@H]1CCCc2ccccc21 [Compound 43]	0.817 µM	80%	83%		
CCc1cccc(CC)c1-c1cc(OC)c2c(n1)CCCC2N1CCc2cccc(C(=O)OC)c2C1 (stereo not drawn) [Compound 44]	0.839 µM	77%	87%		
CCc1cccc(CC)c1-c1cc(OC)c2c(n1)CCCC2N1CCc2ccc(F)cc2C1 (stereo not drawn) [Compound 45]	0.878 µM	74%	87%		
CCc1cccc(CC)c1-c1cc(OC)c2c(n1)CCCC2N(C)c1cc(OC)ccc1Cl (stereo not drawn) [Compound 47]	0.949 µM	83%	89%		
COc1cc(-c2c(C)cccc2C)nc2c1C(N(C)c1ccc(Cl)c3ccccc13)CCC2 (stereo not drawn) [Compound 48]	1.21 µM	85%	91%		
COc1cc(-c2c(C)cccc2C)nc2c1C(N(CC#N)c1cccc3ccccc13)CCC2 (stereo not drawn) [Compound 49]	1.38 µM	59%	80%		
CCc1cccc(CC)c1-c1cc(OC)c2c(n1)CCCC2Nc1cc(F)ccc1C (stereo not drawn) [Compound 50]	1.38 µM	83%	85%		
CCc1cccc(CC)c1-c1cc(OC)c2c(n1)CCCC2N1CCc2ccc(Cl)cc2C1 (stereo not drawn) [Compound 51]	1.41 µM	83%	89%		
CCc1cccc(CC)c1-c1cc(OC)c2c(n1)CCCC2N(C)c1c(C)ccc2ccccc12 (stereo not drawn) [Compound 52]	1.48 µM	86%	86%		
CCc1cccc(CC)c1-c1cc(OC)c2c(n1)CCCC2Nc1cc(Cl)ccc1C (stereo not drawn) [Compound 53]	1.49 µM	85%	91%		
CCc1cccc(CC)c1-c1cc(OC)c2c(n1)CCCC2N(C)N1CCCc2ccccc21 (stereo not drawn) [Compound 54]	1.58 µM	74%	87%		
CCc1cccc(CC)c1-c1cc(OC)c2c(n1)CCCC2N1CCc2c(Cl)cccc2C1 (stereo not drawn) [Compound 56]	1.69 µM	84%	85%		
CCN(c1cccc2ccccc12)C1CCCc2nc(-c3ccccc3C(C)C)cc(OC)c21 (stereo not drawn) [Compound 57]	1.73 µM	76%	89%		
COc1cc(-c2c(C)cccc2C)nc2c1C(N(C)c1cccc3ccccc13)CCC2 (stereo not drawn) [Compound 61]	2.19 µM	76%	88%		
CCc1cccc(CC)c1-c1cc(OC)c2c(n1)CCCC2Nc1ccc(OC)cc1C (stereo not drawn) [Compound 63]	2.35 µM	74%	82%		
